The source made the active and inactive calls. The calls are words filed in the database; no cut-off is given here.
Experiments:
Format in all cases: cell-based
[1] = biological target: T1, Toll-like receptor 4 (Mus musculus) (UniProt Q9QUK6); experiment: Inhibition of LPS binding to TLR4 in IFNgamma-stimulated mouse RAW264.7 cells assessed as reduction in iNOS expression at 100 uM by Western blot analysis
T1 sequence (whole entry): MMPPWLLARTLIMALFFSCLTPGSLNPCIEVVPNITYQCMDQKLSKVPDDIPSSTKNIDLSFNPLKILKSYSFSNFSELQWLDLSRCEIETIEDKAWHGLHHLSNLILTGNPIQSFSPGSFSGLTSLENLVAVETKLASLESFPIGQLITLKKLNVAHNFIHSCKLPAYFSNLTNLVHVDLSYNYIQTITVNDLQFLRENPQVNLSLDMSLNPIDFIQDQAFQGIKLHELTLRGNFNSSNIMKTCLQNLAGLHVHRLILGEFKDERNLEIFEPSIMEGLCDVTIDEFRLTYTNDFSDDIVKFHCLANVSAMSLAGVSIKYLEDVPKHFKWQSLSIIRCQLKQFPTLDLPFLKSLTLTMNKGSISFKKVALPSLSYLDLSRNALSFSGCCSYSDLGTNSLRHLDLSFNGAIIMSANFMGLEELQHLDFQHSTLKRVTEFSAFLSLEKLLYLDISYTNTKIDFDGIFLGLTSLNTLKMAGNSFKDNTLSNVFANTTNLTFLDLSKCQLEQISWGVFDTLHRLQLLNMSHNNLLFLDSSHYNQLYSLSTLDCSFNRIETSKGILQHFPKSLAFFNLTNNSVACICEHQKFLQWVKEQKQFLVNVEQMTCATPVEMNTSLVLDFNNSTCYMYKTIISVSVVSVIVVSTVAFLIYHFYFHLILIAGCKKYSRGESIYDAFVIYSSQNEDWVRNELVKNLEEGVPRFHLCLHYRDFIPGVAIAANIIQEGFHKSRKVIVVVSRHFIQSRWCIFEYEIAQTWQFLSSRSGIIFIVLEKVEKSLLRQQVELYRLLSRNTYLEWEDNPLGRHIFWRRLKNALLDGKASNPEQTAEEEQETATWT

[2] = biological target: T1, Toll-like receptor 4 (Mus musculus); experiment: Inhibition of LPS binding to TLR4 in IFNgamma-stimulated mouse RAW264.7 cells assessed as suppression of IFNgamma mRNA expression at 100 uM by qRT-PCR analysis
[3] = biological target: T1, Toll-like receptor 4 (Mus musculus); experiment: Inhibition of LPS binding to TLR4 in IFNgamma-stimulated mouse RAW264.7 cells assessed as suppression of IL6 mRNA expression at 100 uM by qRT-PCR analysis
[4] = biological target: T1, Toll-like receptor 4 (Mus musculus); experiment: Inhibition of LPS binding to TLR4 in IFNgamma-stimulated mouse RAW264.7 cells assessed as suppression of IL-12 mRNA expression at 100 uM by qRT-PCR analysis
[5] = biological target: T1, Toll-like receptor 4 (Mus musculus); experiment: Inhibition of LPS binding to TLR4 in IFNgamma-stimulated mouse RAW264.7 cells assessed as effect on ratio of phosphorylated TAK1 to total TAK1 at 100 uM measured after 15 mins by Western blot analysis relative to beta-actin (reference value: 1.3)
[6] = biological target: T1, Toll-like receptor 4 (Mus musculus); experiment: Inhibition of LPS binding to TLR4 in IFNgamma-stimulated mouse RAW264.7 cells assessed as effect on ratio of phosphorylated ERK to total ERK at 100 uM measured after 30 mins by Western blot analysis relative to beta-actin (reference value: 0.8)
[7] = biological target: T1, Toll-like receptor 4 (Mus musculus); experiment: Inhibition of LPS binding to TLR4 in IFNgamma-stimulated mouse RAW264.7 cells assessed as effect on ratio of phosphorylated ERK to total ERK at 100 uM measured after 60 mins by Western blot analysis relative to beta-actin (reference value: 3)
[8] = biological target: T1, Toll-like receptor 4 (Mus musculus); experiment: Inhibition of LPS binding to TLR4 in IFNgamma-stimulated mouse RAW264.7 cells assessed as effect on ratio of phosphorylated ERK to total ERK at 100 uM measured after 120 mins by Western blot analysis relative to beta-actin (reference value: 3)
[9] = biological target: T1, Toll-like receptor 4 (Mus musculus); experiment: Inhibition of LPS binding to TLR4 in IFNgamma-stimulated mouse RAW264.7 cells assessed as effect on ratio of phosphorylated p38 to total p38 at 100 uM measured after 15 mins by Western blot analysis relative to beta-actin (reference value: 4.9)
[10] = biological target: T1, Toll-like receptor 4 (Mus musculus); experiment: Inhibition of LPS binding to TLR4 in IFNgamma-stimulated mouse RAW264.7 cells assessed as effect on ratio of phosphorylated p38 to total p38 at 100 uM measured after 30 mins by Western blot analysis relative to beta-actin (reference value: 4.8)
[11] = biological target: T1, Toll-like receptor 4 (Mus musculus); experiment: Inhibition of LPS binding to TLR4 in IFNgamma-stimulated mouse RAW264.7 cells assessed as effect on ratio of phosphorylated p38 to total p38 at 100 uM measured after 60 mins by Western blot analysis relative to beta-actin (reference value: 1.9)
[12] = biological target: T1, Toll-like receptor 4 (Mus musculus); experiment: Inhibition of LPS binding to TLR4 in IFNgamma-stimulated mouse RAW264.7 cells assessed as effect on ratio of phosphorylated JNK to total JNK at 100 uM measured after 15 mins by Western blot analysis relative to beta-actin (reference value: 2)
[13] = biological target: T1, Toll-like receptor 4 (Mus musculus); experiment: Inhibition of LPS binding to TLR4 in IFNgamma-stimulated mouse RAW264.7 cells assessed as effect on ratio of phosphorylated JNK to total JNK at 100 uM measured after 60 mins by Western blot analysis relative to beta-actin (reference value: 1.4)
[14] = biological target: T1, Toll-like receptor 4 (Mus musculus); experiment: Inhibition of LPS binding to TLR4 in IFNgamma-stimulated mouse RAW264.7 cells assessed as effect on ratio of phosphorylated AKT to total AKT at 100 uM measured after 30 mins by Western blot analysis relative to beta-actin (reference value: 1.4)
[15] = biological target: T1, Toll-like receptor 4 (Mus musculus); experiment: Inhibition of LPS binding to TLR4 in IFNgamma-stimulated mouse RAW264.7 cells assessed as effect on ratio of phosphorylated AKT to total AKT at 100 uM measured after 60 mins by Western blot analysis relative to beta-actin (reference value: 1.4)
[16] = biological target: T1, Toll-like receptor 4 (Mus musculus); experiment: Inhibition of LPS binding to TLR4 in IFNgamma-stimulated mouse RAW264.7 cells assessed as effect on ratio of phosphorylated NFkappaB to total NFkappaB at 100 uM measured after 15 mins by Western blot analysis relative to beta-actin (reference value: 4.7)
[17] = biological target: T1, Toll-like receptor 4 (Mus musculus); experiment: Inhibition of LPS binding to TLR4 in IFNgamma-stimulated mouse RAW264.7 cells assessed as effect on ratio of phosphorylated NFkappaB to total NFkappaB at 100 uM measured after 30 mins by Western blot analysis relative to beta-actin (reference value: 2.7)
RAW264.7 = experiment: Inhibition of IFNgamma binding to IFNGR in LPS-stimulated mouse RAW264.7 cells assessed as effect on ratio of phosphorylated Stat1 to total Stat1 at 100 uM measured after 60 mins by Western blot analysis relative to beta-actin (reference value: 4.1)
[18] = biological target: T1, Toll-like receptor 4 (Mus musculus); experiment: Displacement of Alexa fluor 488-conjugated LPS from TLR4 in mouse RAW264.7 cells at 100 uM pretreated for 2 hrs followed by Alexa fluor 488-conjugated LPS addition and measured after 30 mins by Hoechst 33342 staining based assay relative to control

With `C=C(C)[C@@H]1CC[C@]2(C)[C@H](CC=C3[C@@H]4CC(C)(C)CC[C@]4(C)CC[C@]32C(=O)O)[C@@]1(C)CCC(=O)O` the inhibition [1] was “Active”, the inhibition [2] was “Active” and the inhibition [3] was “Active”. For the same compound, the inhibition [4] was “Active”, the fold change (FC) [5] was 1 and the fold change (FC) [6] was 0.7. The fold change (FC) [7] was 2.2, the fold change (FC) [8] was 2.2 and the fold change (FC) [9] was 4. For the same compound, the fold change (FC) [10] was 4, the fold change (FC) [11] was 2 and the fold change (FC) [12] was 1. The fold change (FC) [13] was 1.1, the fold change (FC) [14] was 1.2 and the fold change (FC) [15] was 1. For the same compound, the fold change (FC) [16] was 2.9, the fold change (FC) [17] was 1.6 and the fold change (FC) (RAW264.7) was 1.8. The inhibition [18] was 43%.
